# Measurements taken from patent publication US20050169908A1, “Use of aerosolized antithrombin to treat acute lung injury” (priority 2004, published 2005).
# Tests used:
# [1] = Blood counts (WBC, platelets) after injury; assay type: in vivo, sheep
# Description: (§1) The Animal Care and Use Committee of The University of Texas Medical Branch approved the experiments reported in this manuscript. All animals were handled within the guidelines established by the American Physiological Society and the National Institutes of Health. Twenty four female sheep were surgically prepared for study under halothane anesthesia as previously described (9). After measurement of baseline cardiovascular data, sheep received a combination injury of smoke inhalation and bacteria instillation as previously described (3).
# (§2) Briefly, P. aeruginosa (5×10^9/kg) was instilled intrabronchially after the cotton smoke exposure (4 sets of 12 breaths, <40° C.). After the smoke inhalation and bacterial instillation, animals were randomly assigned for the two treatment groups, ATIII nebulization group (n=6), argatroban-nebulization group (n=8), and saline nebulization control group (n=10). All animals were mechanically ventilated with 100% oxygen throughout the 24-h study (Tidal volume 12-15 ml/kg, 30 breaths/min, PEEP 7.5 cmH2O). Tidal volume was adjusted to maintain PaCO2 normal. The Ringer's lactate solution was injected in sufficient volume to prevent the hematocrit from rising. Initially, 2 ml/kg/h of Ringer's lactate was infused, and we adjusted the in rate up to 10 ml/kg/h based on the hematocrit levels.
# (§3) Recombinant human antithrombin (rhAT) was dissolved in distilled water (250 mg/30 mL). Then, the ATIII solution was mixed with 60 mL saline and 15 mL of the mixed solution containing 41.7 mg ATIII was nebulized every 4 hrs. […] The control group received 15 ml saline nebulization as the same fashion. The solutions were nebulized by an ultrasonic nebulizer (Ultra-Neb99, DeVilbiss Co., Somerset, Pa.), which was connected to the tracheobronchial tree as shown previously (10). The size of the particles obtained by the nebulizer is reported less than 4 microns. The nebulization was started one hour after the insult and every 4 hrs thereafter.
# Arterial blood was cultured to test the bacteremia (Septi-check, Becton Dickinson, Sparks, Md.). Heparinized blood samples were carefully withdrawn from the femoral artery catheter at baseline and at 3, 6, 12, and 24 hrs.
# [2] = tested on: P. aeruginosa; test: Arterial blood culture for bacteremia; assay type: in vivo, sheep; conditions: during the 24 h study; no statistical difference from saline-treated group
# Description: as §1
# as §2, with “levels. […]” for “levels.”
# [3] = tested on: smoke inhalation injury followed by pneumonia; test: Plasma nitrate/nitrite (NOx) levels; assay type: in vivo, sheep; conditions: over 24 h; vs saline-treated group (FIG. 6)
# Description: as §1
# as §2, with “Initially, 2 ml/kg/h of Ringer's lactate was infused, and we adjusted the in rate up to 10 ml/kg/h based on the hematocrit levels.” left out
# The concentration of NOx (total amount of nitric oxide metabolites) in plasma was measured with a chemiluminescent NO analyser (Antek, model 7020) as previously described (11).
# [4] = tested on: smoke inhalation injury followed by pneumonia; test: Lung histopathology scores 24 h after smoke and bacterial challenge; assay type: in vivo, sheep; conditions: vs saline control
# Description: as §1, §2
# Recombinant human antithrombin (rhAT) was dissolved in distilled water (250 mg/30 mL). Then, the ATIII solution was mixed with 60 mL saline and 15 mL of the mixed solution containing 41.7 mg ATIII was nebulized every 4 hrs. […] The control group received 15 ml saline nebulization as the same fashion. […]
# (§4) A lung slice from the right lower lobe was histologically scored by a pathologist who was unaware of animal grouping (5). […] Airway obstruction by cast formation was also evaluated as previously described (3).
# (§5) The statistical software StatView 5.0 (SAS Institute, Cary, N.C.) was used to perform the analysis. Data are expressed as means±SEM. Repeated measured analysis of variance (ANOVA) or ANOVA with Tuckey's post hoc test was used to compare data among the groups. […]
# [5] = tested on: smoke inhalation injury followed by pneumonia; test: Pulmonary gas exchange (PaO2/FiO2 ratio, pulmonary shunt fraction) after smoke inhalation and pneumonia in sheep; assay type: in vivo; conditions: nebulized every 4 hrs, 24-h study; vs saline-treated group (FIG. 1B)
# Protocol: Recombinantly produced ATIII was dissolved in saline (42 mg/ml). Female sheep (n=24) were used. After the 48 breaths of cotton smoke (<40° C.), P. aeruginosa (5×10^11 CFU) was instilled in the both lungs. All the animals were mechanically ventilated by 100% O2 (Tidal volume 15 ml/kg, 30 breaths/min, PEEP 5 cmH2O). […] No animals died during the study.
# as §1
# Briefly, P. aeruginosa (5×10^9/kg) was instilled intrabronchially after the cotton smoke exposure (4 sets of 12 breaths, <40° C.). […]
# as §5
# [6] = tested on: smoke inhalation injury followed by pneumonia; test: Microscopic evaluation of airway obstruction by cast formation; assay type: in vivo, sheep
# Description: as §1, §2
# as §3, with “The nebulization was started one hour after the insult and every 4 hrs thereafter.” left out
# as §4
# [7] = 24 h, vs saline treated group (FIG. 4)
structure (smiles),measurement,setting,value
CC1CNc2c(cccc2S(=O)(=O)N[C@@H](CCCNC(=N)N)C(=O)N2CC[C@@H](C)C[C@@H]2C(=O)O)C1 (stereo partly shown) [Argatroban],Platelets,"[1]; 24 hrs after injury, Mean ± SE",297 ± 78 ×10^3/μL
same,WBC,"[1]; 24 hrs after injury, Mean ± SE",2.08 ± 0.81 ×10^3/μl
same,decrease in leukocyte number 24 h after the injury,"[1]; in words, Table 1",did not affect
same,decrease in platelet count after the injury,"[1]; in words, Table 1",slightly prevented
same,animals with P. aeruginosa detected in arterial blood culture,[2],0%
same,increase in plasma NOx levels,[3],not a statistical difference
same,hemorrhage score,[4],not higher but less
same,"individual histology scores in congestion, edema, inflammation, and hemorrhage (scale 0-4)",[4],almost the same scores as saline control
same,total histology score (maximum 16),[4],did not attenuate
same,increase in pulmonary shunt fraction after the insult,[5],significantly less
same,airway obstruction in bronchi levels,[6]; [7],inhibited the obstruction significantly
same,airway obstruction in bronchiole levels,[6]; [7],inhibited the obstruction significantly
same,"prevention of cast formation (airway obstruction), comparison of the two agents",[6]; argatroban vs rhAT,more effective in preventing cast formation than rhAT
